The record followed here is US20060051868A1, “Methods for increasing conifer somatic embryo initiation, capture, and multiplication” (priority 2001, published 2006).

Data set [1] concerns Loblolly pine megagametophytes. The data set is described as follows: Initiation frequency of embryogenic cultures from Loblolly pine megagametophyte explants. In kind it is cell-based. Here is the method: Explants were megagametophytes isolated from Loblolly pine summer cones when embryos were at approximately stage 2-4. Seeds were. collected from four individual trees of diverse genotypes. Extracted seeds were soaked in running water for 10 minutes, agitated in 10% liquinox supplemented with 1.1 ml/l of Tween 20 for 10 minutes, and rinsed with water for 30 minutes. Seeds were sterilized in a laminar flow hood by agitating in 20% hydrogen peroxide for 10 minutes and rinsing with sterile deionized water. The seed coat, integuments, and nucellus were removed to isolate the megagametophytes. Culturing was performed in 24-well multi-well culture plates with each well having an approximate volume of 3.0 ml. Two ml of media was poured into each well.
Each replication consisted of eight adjacent wells on a multi-well plate, with one megagametophyte per well, providing three replications per multi-well plate. Twelve replications (for a total of 96 explants) were performed per treatment for each cone collection. The well plates were wrapped in Parafilm®, elastic wrap to minimize evaporation and incubated at 22-24° C. under dark conditions for nine weeks. Initiation frequency was scored for each dish by counting the number of explants which had successfully initiated embryogenic cultures.
The media treatments consisted of: (1) a control media #1043 (see Table 21); (2) media #1218, comprising media #1043 supplemented with 250 mg/l MES buffer; (3) media #1043 supplemented with 0.5 ppm folic acid and 0.05 ppm biotin; and (4) media #1218 supplemented with 0.5 ppm folic acid and 0.05 ppm biotin.
A representative procedure is shown for Loblolly pine. Experimental procedure follow similarly for other conifer but differ slightly in the composition of media used. […] Here, however, each treatment-genotype test consisted of ten replications of ten explants.
The cultures were covered and incubated in the dark at 24-26° C. for nine weeks.
Explants from four Loblolly pine cone collections were prepared and cultured as described in Example 2. The media treatments consisted of control media, #1218, which is media #1043 supplemented. with 250 mg/l MES, and four treatment media, which consist of media #1218 supplemented with 0.33, 1.0, 2.0, and 3.0 ppm paclobutrazol, respectively.
Four cone collections with embryos at stages 2-4 were used. Eighty explants from each cone collection on each media were tested. Seeds were removed from cones and soaked in running water for 10 min. Seeds were then agitated in 10% liquinox containing 1.1 ml/l Tween 20 for 10 min., and then rinsed with running tap water for 30 min. After transferring to a sterile hood, seeds were agitated in 20% H2O2 for 10 min., rinsed with sterile nanopure® H2O five times for 5 to 10 min. intervals, and then placed into a sterile petri dish for dissection. Seeds were dissected by splitting the seed coat, removing the integuments and nucellus. The megagametophyte was placed onto the appropriate medium. Each multi-well test plate contained 2 ml of solid media. Plates were incubated in the dark for 8 weeks and then scored.
The control media, media #1253, is described in detail in Table 16. All test media, #1275, #1421, #1422, and #1423 were comprised of the control media with the addition of a gibberellin inhibitor.

The test system of data set [2] is Loblolly pine embryogenic cultures. Description: Growth of Loblolly pine embryogenic cultures from single somatic embryos (tissue diameter, area). In kind it is cell-based. The following applies: for Diameter of tissue (mm) / Approximate tissue area (mm^2): four weeks; for Diameter of tissue (mm): control 4.01; for Approximate tissue area (mm^2): control 12.6. Here is the method:
Three previously initiated Loblolly pine embryogenic cultures, each representing a different genotype, were grown in liquid media #1133, used as starting material for embryogenic cultures on various treatment media. Using a dissecting scope, individual stage 2 somatic embryos were extracted and placed on treatment media in the center of individual wells on a well plate. Forty embryos were prepared per treatment media, per genotype. Well plates were wrapped in Parafilm® and cultured under standard conditions at room temperature in the dark for four weeks. Embryogenic cultures derived from the single isolated embryos proliferated and spread over the surface of the culture medium. Spreading cultures were roughly circular in shape, radiating from the central embryo. At the end of four weeks, the growth of each culture was measured by measuring colony diameter using a dissecting scope ocular micrometer. Five treatment media were compared to control media #1043 (Table 21). Three media consisted of #1043 supplemented with paclobutrazol at concentrations of 0.33, 1.0 and 3.0 ppm. A B-vitamin treatment contained biotin at 0.05 ppm and folic acid at 0.5 ppm. […] The pH of media containing four different concentrations of MES was compared to that of a non-buffered control media during eight weeks of embryogenic culture growth. Maintenance cultures were established on treatment media using single isolated somatic embryos. Maintenance cultures were prepared and cultured essentially as described in Example 5. The control media was #1043. (See Table 21). The treatment media consisted of #1043 supplemented with 250, 500, 1000 and 1500 mg/l MES. Media pH was adjusted to 5.7 within all treatments prior to autoclaving, pouring and solidification. Immediately after pouring the media, and thereafter at two week intervals, media pH was measured up to the eighth week of culture growth. At each sampling time, four cultures from each media-genotype treatment were destructively sampled to measure the pH of the media directly underlying the growing embryogenic tissue. This experiment measured the effects of ABA, vitamins, culturing in a closed container, and culturing at increased atmospheric pressure on the growth of embryogenic cultures. Maintenance cultures were prepared on well plates using single somatic embryos, essentially as described in Example 5.

Data set [3] is described as follows: Media pH during Loblolly pine embryogenic culture growth. Format: physicochemical. Here is the method: The pH of media containing four different concentrations of MES was compared to that of a non-buffered control media during eight weeks of embryogenic culture growth. Maintenance cultures were established on treatment media using single isolated somatic embryos. Maintenance cultures were prepared and cultured essentially as described in Example 5.
The control media was #1043. (See Table 21). The treatment media consisted of #1043 supplemented with 250, 500, 1000 and 1500 mg/l MES. Media pH was adjusted to 5.7 within all treatments prior to autoclaving, pouring and solidification. Immediately after pouring the media, and thereafter at two week intervals, media pH was measured up to the eighth week of culture growth. At each sampling time, four cultures from each media-genotype treatment were destructively sampled to measure the pH of the media directly underlying the growing embryogenic tissue.

As for `CC(C)(C)[C@@H](O)[C@@H](Cc1ccc(Cl)cc1)n1cncn1` (racemic) [paclobutrazol], the “Initiation Frequency (%)” value in data set [1] (0.33 ppm in buffered media #1218 (Media 1043 + 250 mg/l MES), control 40.5) is 46.8%; in data set [1] (0.33 ppm in media #1043, nine weeks, control 39.1) it was 37.3%; in data set [1] (1.0 ppm in buffered media #1218 (Media 1043 + 250 mg/l MES), control 40.5) it was 46.0%; in data set [1] (2.0 ppm in buffered media #1218 (Media 1043 + 250 mg/l MES), control 40.5), 46.1%; in data set [1] (3.0 ppm in buffered media #1218 (Media 1043 + 250 mg/l MES), control 40.5), 44.7%; in data set [1] (base media #1253, 1.0 ppm paclobutrazol, 0.1062 ppm flurprimidol, 1.58 ppm chlormequat-Cl, 0.16 ppm succinic acid-dh, 8 weeks, dark, control 29.5) it was 35.3%. The “Extrusion (%)” value in data set [1] (base media #1253, 1.0 ppm paclobutrazol, 0.1062 ppm flurprimidol, 1.58 ppm chlormequat-Cl, 0.16 ppm succinic acid-dh, 8 weeks, dark, control 58.6) was determined as 58.1%. For the same compound, the figures for the “Diameter of tissue (mm)” value in data set [2] (0.33 ppm in media #1043), in data set [2] (1.0 ppm in media #1043) and in data set [2] (3.0 ppm in media #1043) were 4.13 mm, 5.00 mm and 5.23 mm, respectively. Also, the “Approximate tissue area (mm^2)” value in data set [2] (0.33 ppm in media #1043) is reported as 13.4 mm^2; in data set [2] (1.0 ppm in media #1043), 19.6 mm^2; in data set [2] (3.0 ppm in media #1043), 21.5 mm^2.

On to `O=S(=O)(O)CCN1CCOCC1` [MES, 2-(N-morpholino)-ethanesulfonic acid], for which the “Initiation Frequency (%)” value in data set [1] (base media #1043, MES 250 mg/l, vitamins = 0.5 ppm folic acid + 0.05 ppm biotin, nine weeks, dark, control 42.9) came to 47.7%. The “Growth of cultures, as measured by culture diameter, relative to the control” value in data set [2] (250 mg/l MES in media #1043) is on record as “increased”; in data set [2] (higher concentrations of MES (500, 1000, 1500 mg/l) in media #1043), “inhibited”. In addition, the “Media pH” value amounted to 5.55 in data set [3] (250 mg/l in media #1043, 0 weeks); 5.43 in data set [3] (250 mg/l in media #1043, 2 weeks); 4.69 in data set [3] (250 mg/l in media #1043, 4 weeks); 4.68 in data set [3] (250 mg/l in media #1043, 6 weeks); 4.72 in data set [3] (250 mg/l in media #1043, 8 weeks); 5.63 in data set [3] (500 mg/l in media #1043, 0 weeks). The “Media pH” value amounted to 5.50 in data set [3] (500 mg/l in media #1043, 2 weeks); 4.78 in data set [3] (500 mg/l in media #1043, 4 weeks); 4.77 in data set [3] (500 mg/l in media #1043, 6 weeks); 4.54 in data set [3] (500 mg/l in media #1043, 8 weeks); 5.67 in data set [3] (1000 mg/l in media #1043, 0 weeks); 5.57 in data set [3] (1000 mg/l in media #1043, 2 weeks). For the same compound, the “Media pH” value in data set [3] (1000 mg/l in media #1043, 4 weeks) is listed as 5.38; in data set [3] (1000 mg/l in media #1043, 6 weeks), 4.70; in data set [3] (1000 mg/l in media #1043, 8 weeks) it was 4.89; in data set [3] (1500 mg/l in media #1043, 0 weeks), 5.67; in data set [3] (1500 mg/l in media #1043, 2 weeks), 5.59; in data set [3] (1500 mg/l in media #1043, 4 weeks) it was 5.59. The “Media pH” value is recorded as 4.91 in data set [3] (1500 mg/l in media #1043, 6 weeks) and 5.18 in data set [3] (1500 mg/l in media #1043, 8 weeks).
